Publication PMC7156612, “Olinciguat, an Oral sGC Stimulator, Exhibits Diverse Pharmacology Across Preclinical Models of Cardiovascular, Metabolic, Renal, and Inflammatory Disease” (Frontiers in Pharmacology, 2020)
Read-outs that look alike come from different tables or passages of the source.

Legend:
[1] = tested on: human subcutaneous resistance arteries; experiment: Human vascular smooth muscle relaxation (U46619-precontracted arteries); format: cell-based; conditions: for EC50: Homo sapiens
Experimental: The effect of olinciguat on relaxation of contracted human subcutaneous resistance arteries was determined according to methods described in ([Tobin et al., 2018]). In brief, human subcutaneous resistance arteries were obtained from three donors (females ages 27–51) undergoing elective surgeries. Arteries were mounted in a tissue bath and precontracted with the thromboxane mimetic, U46619 (100 nM). Only tissues containing functional endothelium, as determined by relaxation in response to acetylcholine (10 µM), were used. A cumulative concentration-response curve (0.1 to 10 µM) was generated for olinciguat, followed by addition of the NO donor sodium nitroprusside (100 μM). Percent relaxation at each olinciguat concentration was determined relative to the U46619-mediated contraction. Using GraphPad Prism v.7, a sigmoidal dose-response (variable slope) curve was fit with the bottom value constrained to zero to determine the EC50.

[2] = Quantitative whole-body autoradiography in Long-Evans rats; format: in vivo, rat; conditions: single p.o. 3 mg/kg, 14C-derived radioactivity
Experimental: Quantitative whole-body autoradiography (QWBA) assays were performed at QPS, LLC (Newark, DE) as described previously (Solon et al., 2002). Male Long-Evans (LE) rats (218–262 g, n=11, Hilltop Lab Animals, Inc., Scottdale, PA) were studied. All rats were administered a single p.o. dose of [^14C]-olinciguat at a target dose of 3 mg/kg and approximately 200 µCi/kg formulated in PEG 400 in water (60:40 v/v). Immediately prior to euthanasia, blood was obtained via cardiac puncture for plasma radioactivity determinations by liquid scintillation counting. At each timepoint (1, 2, 4, 8, 12, 24, 48, 72, 96, 168, and 504 h post-dose), one rat was euthanized by immersion in a hexane/solid carbon dioxide bath and frozen for at least 15 min for QWBA analysis. Each frozen rat carcass was embedded in a 2% carboxymethylcellulose matrix with a microtome stage at −20°C. Concentrations of radioactivity were used to determine the concentration of compound equivalents in each tissue and in plasma using the Specific Activity of 66.7 µCi/mg of [^14C]-olinciguat. Whole body sections for each rat were mounted on a cardboard backing, covered with thin plastic wrap, and exposed along with calibration standards of [^14C]-glucose at 10 different concentrations (0.00096 to 7.8 µCi/g) to a ^14C-sensitive phosphor imaging plate (Fuji Biomedical, Stamford, CT). Imaging plates were scanned using the Typhoon 9410 image acquisition system (GE/Molecular Dynamics, Sunnyvale, CA, USA). Radioactivity concentration in tissues was quantified by image densitometry using MCID image analysis software (v. 7.0, Interfocus Imaging Ltd) and a standard curve constructed from the integrated response (molecular dynamics counts/mm^2) and the nominal concentrations of [^14C]-glucose standards. Tissue concentration data were obtained for virtually all tissues (see Supplemental Materials). The concentrations of radioactivity were expressed as the microgram equivalents of [^14C]-olinciguat per gram of sample. An upper and lower limit of quantification, determined by using the radioactive concentration of the highest and lowest calibration standards divided by the specific activity of the test article in formulation, was applied to the data. Phoenix® WinNonLin® v.6.3 was used to determine PK parameters, including maximal concentration (Cmax) and area under the curve of all observed points (AUCall). Tissue:plasma AUCall ratios were determined.

[3] = Olinciguat plasma concentration in hemodynamic study (pooled Wistar and SHR); format: in vivo, rat; conditions: for concentration at 1 h: male, Wistar and SHR (spontaneously hypertensive rat), pooled, rat, plasma, oral, mean and SEM of 6 animals (n=3 Wistar, n=3 SHR), read-out: average plasma concentration 1 h after dosing on Day 4
Experimental: Blood from i.v. and p.o. dosed rats was collected at 16 timepoints (2 groups of rats, 8 timepoints per group) over 24 h. Samples were collected into potassium ethylenediamine tetraacetic acid (K2EDTA) tubes, centrifuged (3,500 rpm for 10 min) to yield plasma. In the pharmacokinetic studies and in all in vivo studies, olinciguat plasma concentrations were determined by LC-MS/MS. Pharmacokinetic (PK) parameters were calculated by noncompartmental analysis using sparse sampling in Phoenix® WinNonLin® v.6.3 (Certara, Princeton, NJ).
Spontaneously hypertensive rats (SHRs) (n=6, male, 230–250 g, 14 weeks of age) and Wistar rats (n=6, male, 230–250 g, 12 weeks of age) were implanted with telemetry transmitters as described above. Olinciguat was formulated as a suspension in a vehicle containing 0.5% methylcellulose and 0.2% Tween. Rats were p.o. dosed with a dosing volume of 5 ml/kg. In a weekly-dose escalation design, rats were administered vehicle (week 1), olinciguat 1 mg/kg (week 2), 3 mg/kg (week 3), and 10 mg/kg (week 4). For each dose level, rats were dosed once daily (QD) for 4 days. Using plasma from tail vein, olinciguat plasma concentrations were determined at 1, 6, and 24 h post-dose on day 4 and reported as the mean from Wistar (n=3) and SHR (n=3). Hemodynamics were recorded hourly during a 24-h baseline period and over the first 3 days of dosing.

[4] = Rat post-myocardial infarction model; format: in vivo; conditions: male, Sprague-Dawley, rat, plasma, oral; MI rats, 30 mg/kg/day in chow; read-out: olinciguat plasma concentration at week 8
Experimental: (§1) Male Sprague-Dawley rats (n = 24, 270–330 g) were studied. MI was induced by permanent ligation of the left anterior descending (LAD) coronary artery. Briefly, after anesthesia with 5% isoflurane, rats were intubated and ventilated using a small animal ventilator (Model 683, Harvard Apparatus). Surgery was performed under sterile conditions. Briefly, the heart was exposed through left thoracotomy, the pericardium was incised, and the LAD coronary artery was ligated with 4-0 silk suture (Ethicon, Inc.). The lungs were inflated, and the chest wall was closed in three layers. Approximately 100 µl of 0.25% marcaine was applied directly to the edge of the skin incision. Long-acting buprenorphine (1 mg/kg/day, s.c.) was administered after the surgery for postoperative pain relief. Sham-operated rats underwent the same procedure without ligation of the LAD.
(§2) Treatment was initiated within 24 h following surgery. The Sham and MI control groups were maintained on chow for the entire 8-week treatment period. Rats in the MI + olinciguat group received olinciguat in chow at the targeted dose of 30 mg/kg/day for the entire 8-week treatment period. Ejection fraction (EF) was measured at week 8 by echocardiography using the long axis view of the left ventricle in B-mode.
(§3) In the post-MI study, data were analyzed by one-way ANOVA, followed by Dunnett's multiple comparison to the MI group.

[5] = tested on: Sprague-Dawley rats with LAD ligation (post-MI); experiment: Rat post-myocardial infarction model; format: in vivo; conditions: 30 mg/kg/day, total plasma concentration x 1.0% free
Experimental: as §1, §2, §3

With `NC(=O)[C@](O)(CNc1nc(-c2cc(-c3ccon3)n(Cc3ccccc3F)n2)ncc1F)C(F)(F)F` [olinciguat, (R)-3,3,3-trifluoro-2-(((5-fluoro-2-(1-(2-fluorobenzyl)-5-(isoxazol-3-yl)-1H-pyrazol-3-yl)pyrimidin-4-yl)amino)methyl)-2-hydroxypropanamide] the “mean relaxation at 10 μM” value ([1]; 10 μM olinciguat, relative to U46619-mediated contraction) was 94.8%, the EC50 ([1]; Table 2 summary, read-out: Human vascular relaxation EC50, olinciguat concentration (range = 95% CI)) was 16 to 38 nM and the EC50 ([1]; pre-contracted with U46619 100 nM, n=3 donors, 95% CI 16 to 38 nM, read-out: EC50, relaxation of pre-contracted arteries) was 24.3 nM. The AUCall blood-to-plasma ratio [2] was 0.73, the “tissue:plasma AUCall ratio, adrenal gland” value [2] was 2.41 and the “tissue:plasma AUCall ratio, cecum” value [2] was 4.63. The “tissue:plasma AUCall ratio, esophagus” value [2] was 2.01, the “tissue:plasma AUCall ratio, kidney cortex” value [2] was 13.6 and the “tissue:plasma AUCall ratio, kidney medulla” value [2] was 5.14. The “tissue:plasma AUCall ratio, liver” value [2] was 50.3, the “tissue:plasma AUCall ratio, remaining eight tissues (all four measured regions of the brain, spinal cord, bone, eye lens)” value [2] was no more than 0.1 and the “tissue:plasma AUCall ratio, small intestine” value [2] was 27.5. For the same compound, the “tissue:plasma AUCall ratio, urinary bladder” value [2] was 2.62, the “tissue:plasma ratio, aorta” value [2] was 0.92 and the “tissue:plasma ratio, brown adipose” value [2] was 1.16. The “tissue:plasma ratio, heart” value [2] was 0.84, the “tissue:plasma ratio, lung” value [2] was 0.86 and the “tissue:plasma ratio, skeletal muscle” value [2] was 0.52. For the same compound, the “tissue:plasma ratio, white adipose” value [2] was 0.67, the “Olinciguat concentration (free)” value ([3]; 10 mg/kg, pooled samples from Wistar and SHR, total plasma concentration x 1.0% free) was 1.6–3.3 nM^a,e and the concentration at 1 h ([3]; 1 mg/kg p.o. QD) was 57.3 ± 38.7 nM. For the same compound, the concentration at 1 h ([3]; 3 mg/kg p.o. QD) was 132 ± 30 nM, the concentration at 1 h ([3]; 10 mg/kg p.o. QD) was 245 ± 86 nM and the concentration at 8 weeks [4] was 167 ± 11 nM. For the same compound, the “Olinciguat concentration (free)” value [5] was 1.6–1.8 nM^e.
